From patent publication US8969516B2, “Method of hydrolysis of peptide bond” (priority 2006, dated 2015)

Assay: MALDI-TOF screening of Ni^2+ dependent hydrolysis in a combinatorial peptide library
Type: physicochemical
Settings: CH3CO-Gly-Ala-Ser-X-His-Z-Lys-Phe-Leu-NH2 library, Ni^2+ 2 mM, pH 8.2, 10 mM Tris, score=24/tm
Source text: The sequence CH3CO-Gly-Ala-Ser/Thr-X-His-Z-Lys-Phe-Leu-NH2 was designed so that the fixed R1 and R2 sequences, CH3CO-Gly-Ala, and Lys-Phe-Leu-NH2, respectively, allowed optimal detection by MALDI-TOF mass spectrometry of substrates as well as expected products, Ser/Thr-X-His-Z-Lys-Phe-Leu-NH2 and assured separation between the clusters of signals for substrates and products in sublibraries (see below).
Residues in position X included all amino acids commonly present in proteins, except for Asp, Glu, and Cys. The former two contain carboxylates in their side chains, which may bind Ni^2+ in a way which would quench or slow down the hydrolysis reaction. The Cys residue may do the same, and also may engage in side reactions with Ni^2+ ions, including redox processes (for example see Bal and Kasprzak, Toxicol. Lett. 2002, 127, 55-62). Only the Cys residue was eliminated from position Z, for the same reasons.
The synthesis of the library was accomplished on a RINK amide resin (Novabiochem) on a 800 mg scale, according to a typical Fmoc protocol (Fields, Meth. Enzymol. Vol. 289). The resin-attached Leu-Phe-Lys peptide was synthesised first and coupled with the isokinetic mixture of 19 amino acids selected for position Z, and then with the H is residue. The resin carrying the library of pentapeptides was divided into Ser and Thr halves at this stage, and each of these halves into 17 portions, which were coupled with individual amino acids selected for position X. The coupling with Ser or Thr as appropriate, additions of Ala and Gly residues, acetylation of Gly, deprotection and cleavage from the resin were accomplished subsequently. Each of the resulting 34 samples of sublibraries randomized at position X was separated into two portions, one for the reaction at 37° C. and another for the reaction at 45° C. The hydrolysis reactions were accomplished in 10 mM Tris buffers at pH 8.2. The total concentrations of peptide mixtures and Ni^2+ ions were 1 mM and 2 mM, respectively. The pH for the reaction was chosen as selective for highly reactive sequences.
The detection of reaction products was accomplished with the use of a MALDI-TOF mass spectrometer (Micromass). The aliquots were removed from reaction mixtures and measured by MS at 2, 4, 6, and 8 hours of incubation. The progress of reaction was evaluated by visual detection in mass spectra of appearance of signals corresponding to expected products of hydrolysis, Ser/Thr-X-His-Z-Lys-Phe-Leu-NH2, at given measurement times, tm. […] Also the decrease of signals of substrates was controlled in these cases.
Residues X and Z were then sorted according to various molecular parameters, describing their physical properties (Carugo, In Silico Biol. 2003, 3, 0035). […] The Ser library provided a higher number of reactive peptides than the Thr library. Following the additivity of effects, the scores were also summed up in lines and columns of Table 1A-D, thereby creating final rankings for preferred substitutions in positions X and Z.

Substance | hydrolysis score from MALDI-TOF screening (37° C.) | hydrolysis score from MALDI-TOF screening (45° C.)
Ac-GASAHDKFL-NH2 [SAHD] | 0 (a score of 0 if no trace of the product of hydrolysis was seen after 8 hours of incubation) | 0 (a score of 0 if no trace of the product of hydrolysis was seen after 8 hours of incubation)
Ac-GASAHFKFL-NH2 [SAHF] | 0 (a score of 0 if no trace of the product of hydrolysis was seen after 8 hours of incubation) | 3 (a score of 3 for detection at 8 hours)
Ac-GASAHGKFL-NH2 [SAHG] | 0 (a score of 0 if no trace of the product of hydrolysis was seen after 8 hours of incubation) | 0 (a score of 0 if no trace of the product of hydrolysis was seen after 8 hours of incubation)
Ac-GASAHIKFL-NH2 [SAHI] | 0 (a score of 0 if no trace of the product of hydrolysis was seen after 8 hours of incubation) | 4 (a score of 4 for detection at 6 hours)
Ac-GASAHKKFL-NH2 [SAHK] | 3 (a score of 3 for detection at 8 hours) | 6 (a score of 6 for detection at 4 hours)
Ac-GASAHLKFL-NH2 [SAHL] | 0 (a score of 0 if no trace of the product of hydrolysis was seen after 8 hours of incubation) | 4 (a score of 4 for detection at 6 hours)
Ac-GASAHMKFL-NH2 [SAHM] | 0 (a score of 0 if no trace of the product of hydrolysis was seen after 8 hours of incubation) | 0 (a score of 0 if no trace of the product of hydrolysis was seen after 8 hours of incubation)
Ac-GASAHNKFL-NH2 [SAHN] | 0 (a score of 0 if no trace of the product of hydrolysis was seen after 8 hours of incubation) | 0 (a score of 0 if no trace of the product of hydrolysis was seen after 8 hours of incubation)
Ac-GASAHQKFL-NH2 [SAHQ] | 0 (a score of 0 if no trace of the product of hydrolysis was seen after 8 hours of incubation) | 0 (a score of 0 if no trace of the product of hydrolysis was seen after 8 hours of incubation)
Ac-GASAHRKFL-NH2 [SAHR] | 3 (a score of 3 for detection at 8 hours) | 6 (a score of 6 for detection at 4 hours)
Ac-GASAHSKFL-NH2 [SAHS] | 0 (a score of 0 if no trace of the product of hydrolysis was seen after 8 hours of incubation) | 0 (a score of 0 if no trace of the product of hydrolysis was seen after 8 hours of incubation)
Ac-GASAHTKFL-NH2 [SAHT] | 0 (a score of 0 if no trace of the product of hydrolysis was seen after 8 hours of incubation) | 0 (a score of 0 if no trace of the product of hydrolysis was seen after 8 hours of incubation)
Ac-GASAHVKFL-NH2 [SAHV] | 0 (a score of 0 if no trace of the product of hydrolysis was seen after 8 hours of incubation) | 3 (a score of 3 for detection at 8 hours)
Ac-GASAHWKFL-NH2 [SAHW] | 4 (a score of 4 for detection at 6 hours) | 6 (a score of 6 for detection at 4 hours)
Ac-GASAHYKFL-NH2 [SAHY] | 0 (a score of 0 if no trace of the product of hydrolysis was seen after 8 hours of incubation) | 3 (a score of 3 for detection at 8 hours)
Ac-GASFHAKFL-NH2 [SFHA] | 0 (a score of 0 if no trace of the product of hydrolysis was seen after 8 hours of incubation) | 3 (a score of 3 for detection at 8 hours)

Substance | hydrolysis score from MALDI-TOF screening (37° C.) | hydrolysis score from MALDI-TOF screening (45° C.)
Ac-GASFHDKFL-NH2 [SFHD] | 0 (a score of 0 if no trace of the product of hydrolysis was seen after 8 hours of incubation) | 0 (a score of 0 if no trace of the product of hydrolysis was seen after 8 hours of incubation)
Ac-GASFHEKFL-NH2 [SFHE] | 0 (a score of 0 if no trace of the product of hydrolysis was seen after 8 hours of incubation) | 3 (a score of 3 for detection at 8 hours)
Ac-GASFHFKFL-NH2 [SFHF] | 3 (a score of 3 for detection at 8 hours) | 6 (a score of 6 for detection at 4 hours)
Ac-GASFHGKFL-NH2 [SFHG] | 0 (a score of 0 if no trace of the product of hydrolysis was seen after 8 hours of incubation) | 0 (a score of 0 if no trace of the product of hydrolysis was seen after 8 hours of incubation)
Ac-GASFHIKFL-NH2 [SFHI] | 4 (a score of 4 for detection at 6 hours) | 6 (a score of 6 for detection at 4 hours)
Ac-GASFHKKFL-NH2 [SFHK] | 4 (a score of 4 for detection at 6 hours) | 6 (a score of 6 for detection at 4 hours)
Ac-GASFHLKFL-NH2 [SFHL] | 4 (a score of 4 for detection at 6 hours) | 6 (a score of 6 for detection at 4 hours)
Ac-GASFHMKFL-NH2 [SFHM] | 0 (a score of 0 if no trace of the product of hydrolysis was seen after 8 hours of incubation) | 3 (a score of 3 for detection at 8 hours)
Ac-GASFHNKFL-NH2 [SFHN] | 0 (a score of 0 if no trace of the product of hydrolysis was seen after 8 hours of incubation) | 0 (a score of 0 if no trace of the product of hydrolysis was seen after 8 hours of incubation)
Ac-GASFHPKFL-NH2 [SFHP] | 0 (a score of 0 if no trace of the product of hydrolysis was seen after 8 hours of incubation) | 0 (a score of 0 if no trace of the product of hydrolysis was seen after 8 hours of incubation)
Ac-GASFHQKFL-NH2 [SFHQ] | 0 (a score of 0 if no trace of the product of hydrolysis was seen after 8 hours of incubation) | 0 (a score of 0 if no trace of the product of hydrolysis was seen after 8 hours of incubation)
Ac-GASFHRKFL-NH2 [SFHR] | 4 (a score of 4 for detection at 6 hours) | 6 (a score of 6 for detection at 4 hours)
Ac-GASFHSKFL-NH2 [SFHS] | 0 (a score of 0 if no trace of the product of hydrolysis was seen after 8 hours of incubation) | 0 (a score of 0 if no trace of the product of hydrolysis was seen after 8 hours of incubation)
Ac-GASFHTKFL-NH2 [SFHT] | 0 (a score of 0 if no trace of the product of hydrolysis was seen after 8 hours of incubation) | 0 (a score of 0 if no trace of the product of hydrolysis was seen after 8 hours of incubation)
Ac-GASFHVKFL-NH2 [SFHV] | 3 (a score of 3 for detection at 8 hours) | 6 (a score of 6 for detection at 4 hours)
